Measurements taken from US8765802B2, “Kinase inhibitors, compositions thereof, and methods of use therewith” (Provid Pharmaceuticals, Inc., priority 2007, dated 2014).

These molecules were tested against T1, Chk2 (Homo sapiens, UniProt O96017) (assay: Chk2 inhibitor IMAP assay (high-throughput Chk2 screening assay)). Conditions: IMAP fluorescence polarization assay, 10 μM ATP.
T1 construct: made in house; host or cells: E. coli BL21 Star (Invitrogen)
Assay type: biochemical
Experimental: Compounds set forth in Table 1 were tested in the Chk2 inhibitor IMAP assay described herein in Example 6.84. […] The letters given for the Chk2 EC50 values in Table 1 represent the following ranges: A=<100 nM; B=100-300 nM; C=300-1000 nM; D=1-10 μM; and E>10 μM.
Compounds can be screened for Chk2 inhibitory activity using a high-throughput screening assay based in the immobilized metal ion affinity-based fluorescence polarization (IMAP) assay developed by Molecular Devices. This assay is based on the high affinity binding of phosphate by immobilized metal (MIII) coordination complexes on nanoparticles. A fluorescein-labeled peptide substrate is used as the substrate for the kinase activity of Chk2 in the assay. The IMAP binding reagent stops the kinase reaction. The binding of the binding reagent results in a change in the rate of molecular motion of the peptide and causes an increase in the fluorescence polarization value observed for the fluorescein label attached to the end of the peptide. Thus, inhibition of Chk2 would result in a decrease in fluorescence polarization compared to control.
A specific protocol for screening Compounds for Chk2 inhibitory activity follows.
A Compound is supplied at 1 mM in 0.5 μl DMSO on 384 well plates (such as Greiner or Corning). After thawing, 5 μl DMSO is added to the drug plate. The drug plate is then incubated for 10 minutes to solubilize the Compound. An additional 19.5 μl of reaction buffer (10× stock prepared using 100 mM Tris-HCl, 100 mM MgCl2, 1% BSA, pH 7.2, stored at 4° C.)+1 mM DDT is added to bring the Compound to 4× final concentration. A positive control is also prepared at 4× final concentration. The following control wells are used: less enzyme control (all reagents except enzyme; 5 μl/well), less Compound control (all reagents except Compound; 5 μl/well), positive control (all reagents plus staurosporine at a final concentration of 5 μM; 5 μl/well).
Reagents are then added in the following order to give the following final concentration: 2.5 μl ATP/Chk2tide (Molecular Devices) (10 μM/100 nM final concentration), 1.25 μl Compound (5 μM final concentration inf 5.5% DMSO), and 1.25 μl Chk2 (1:500, 2.4 μg/mL final concentration).
Plates are covered and incubated at room temperature for 60 minutes.
IMAP binding reagent (Molecular Devices) is diluted 1:400 into binding buffer (Molecular Devices). 15 μl of this solution is then added to all wells and the plates are covered and incubated for 30 minutes.
Plates are read using a Tecan Ultra under the fluorescence polarization mode. Gain is set to the less enzyme and less Compound wells for each plate. Excitation 485 nm, emmission 535 nm, Z position 12519 and flashes 5 are used as settings. Raw data from the Tecan reader is imported into an access database for analysis.

T1 sequence (O96017 whole entry): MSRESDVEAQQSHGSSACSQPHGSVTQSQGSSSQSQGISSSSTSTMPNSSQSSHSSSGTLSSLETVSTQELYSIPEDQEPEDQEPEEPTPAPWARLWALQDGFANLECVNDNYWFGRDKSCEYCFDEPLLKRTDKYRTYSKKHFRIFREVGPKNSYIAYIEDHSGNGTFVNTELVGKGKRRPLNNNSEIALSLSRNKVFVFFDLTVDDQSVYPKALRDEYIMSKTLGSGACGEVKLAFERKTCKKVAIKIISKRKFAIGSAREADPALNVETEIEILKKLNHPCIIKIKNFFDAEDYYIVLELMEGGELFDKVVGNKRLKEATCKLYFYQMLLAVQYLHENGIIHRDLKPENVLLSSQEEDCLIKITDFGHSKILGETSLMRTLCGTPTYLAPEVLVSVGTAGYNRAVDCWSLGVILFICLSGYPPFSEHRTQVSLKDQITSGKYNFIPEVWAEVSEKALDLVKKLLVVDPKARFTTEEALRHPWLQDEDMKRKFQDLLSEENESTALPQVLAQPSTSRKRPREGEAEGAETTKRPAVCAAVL

| EC50 | SMILES |
| --- | --- |
| < 100 nM | CCC/C(=N/NC(=N)N)c1ccc(NC(=O)c2cc3cc(OC)ccc3[nH]2)cc1 (single isomer, unassigned) [Compound 24] |
| 300 to 1000 nM | CCC/C(=N/NC(=N)N)c1ccc(NC(=O)c2cc3cc(OC)ccc3[nH]2)cc1 (single isomer, unassigned) [Compound 26] |
| < 100 nM | CCCC(=NNC(=N)N)c1ccc2[nH]c(C(=O)Nc3ccc4cc[nH]c4c3)cc2c1 (single isomer, unassigned) [Compound 112] |
| 300 to 1000 nM | CCCC(=NNC(=N)N)c1ccc2[nH]c(C(=O)Nc3ccc4cc[nH]c4c3)cc2c1 (single isomer, unassigned) [Compound 113] |
| < 100 nM | CC(C)CC(=NNC(=N)N)c1ccc2[nH]c(C(=O)Nc3ccc4cc[nH]c4c3)cc2c1 (single isomer, unassigned) [Compound 123] |
| 1000 to 10000 nM | CC(C)CC(=NNC(=N)N)c1ccc2[nH]c(C(=O)Nc3ccc4cc[nH]c4c3)cc2c1 (single isomer, unassigned) [Compound 124] |
| < 100 nM | CCC/C(=N\NC(=N)N)c1ccc(NC(=O)Nc2ccc(/C(C)=N/NC(=N)N)cc2)cc1 [Compound 1] |
| 1000 to 10000 nM | C/C(=N\NC(=N)N)c1ccc(NC(=O)c2c[nH]c3ccccc23)cc1 [Compound 2] |
| < 100 nM | CCCC(=NNC(=N)N)c1ccc(NC(=O)Nc2ccc(C(CCC)=NNC(=N)N)cc2)cc1 [Compound 3] |
| 100 to 300 nM | C/C(=N\NC(=N)N)c1ccc(NC(=O)Nc2ccc(/C(C)=N/NC(=N)N)c(C)c2)cc1 [Compound 4] |
| 300 to 1000 nM | CC(=NNC(=N)N)c1ccc(NC(=O)Nc2ccc3c(c2)CCC(C)C3=NNC(=N)N)cc1 (stereo not shown) [Compound 5] |
| 300 to 1000 nM | CC(=NNC(=N)N)c1ccc(NC(=O)Nc2ccc3c(c2)CCC3=NNC(=N)N)cc1 [Compound 6] |
| 300 to 1000 nM | C/C(=N\NC(=N)N)c1ccc(NC(=O)c2cc3ccccc3[nH]2)cc1 [Compound 7] |
| 300 to 1000 nM | C/C(=N\NC(=N)N)c1ccc(NC(=O)c2cc3ccccc3o2)cc1 [Compound 8] |
| 100 to 300 nM | C/C(=N\NC(=N)N)c1ccc(NC(=O)c2cc3cc(C)ccc3[nH]2)cc1 [Compound 9] |
| < 100 nM | COc1ccc2[nH]c(C(=O)Nc3ccc(/C(C)=N/NC(=N)N)cc3)cc2c1 [Compound 10] |
| 300 to 1000 nM | C/C(=N\NC(=N)N)c1ccc(NC(=O)c2cc3cc(O)ccc3[nH]2)cc1 [Compound 11] |
| 300 to 1000 nM | C/C(=N/NC(=N)N)c1ccc(NC(=O)Nc2ccc(NC(=O)/C(C)=N/NC(=N)N)cc2)cc1 [Compound 12] |
| 300 to 1000 nM | C/C(=N/N=C(\N)c1ccccn1)c1ccc(NC(=O)Nc2ccc(/C(C)=N/N=C(\N)c3ccccn3)cc2)cc1 [Compound 13] |
| 300 to 1000 nM | C/C(=N/NC(=N)N)c1ccc(NC(=O)Nc2ccc(/C(C)=N/N=C(\N)c3ccccn3)cc2)cc1 [Compound 14] |
| < 100 nM | C/C(=N\NC1=NCCN1)c1ccc(NC(=O)Nc2ccc(/C(C)=N/NC3=NCCN3)cc2)cc1 [Compound 15] |

| EC50 | SMILES |
| --- | --- |
| < 100 nM | C/C(=N\NC(=N)N)c1ccc(NC(=O)Nc2ccc(/C(C)=N/NC3=NCCN3)cc2)cc1 [Compound 16] |
| < 100 nM | C/C(=N\NC(=N)N)c1ccc(NC(=O)c2cc3cc(/C(C)=N/NC(=N)N)ccc3[nH]2)cc1 [Compound 17] |
| 100 to 300 nM | COc1ccc2[nH]c(C(=O)Nc3ccc(/C(C)=N/NC4=NCCN4)cc3)cc2c1 [Compound 19] |
| < 100 nM | C/C(=N\NC(=N)N)c1ccc(NC(=O)Nc2ccc(C#N)cc2)cc1 [Compound 20] |
| < 100 nM | C/C(=N\NC1=NCCN1)c1ccc(NC(=O)c2cc3cccc([N+](=O)[O-])c3[nH]2)cc1 [Compound 22] |
| < 100 nM | COc1ccc2[nH]c(C(=O)Nc3ccc(/C(C)=N/NC4=NCCN4)cc3)cc2c1 [Compound 23] |
| 300 to 1000 nM | C/C(=N\NC(=N)N)c1ccc(NC(=O)c2cc3cc(N)ccc3[nH]2)cc1 [Compound 25] |
| 100 to 300 nM | C/C(=N\NC(=N)N)c1ccc(NC(=O)c2cc3cc(C(N)=O)ccc3[nH]2)cc1 [Compound 27] |
| 1000 to 10000 nM | COc1cc2cc(C(=O)Nc3ccc(/C(C)=N/NC(=N)N)cc3)[nH]c2cc1OCc1ccccc1 [Compound 29] |
| 300 to 1000 nM | C/C(=N/NC(=N)N)c1ccc(NC(=O)c2[nH]c3ccccc3c2Br)cc1 [Compound 30] |
| 300 to 1000 nM | COc1cccc2cc(C(=O)Nc3ccc(/C(C)=N/NC(=N)N)cc3)oc12 [Compound 31] |
| 1000 to 10000 nM | C/C(=N\NC(=N)N)c1ccc(NC(=O)c2cc3cc(Br)ccc3o2)cc1 [Compound 32] |
| 1000 to 10000 nM | C/C(=N/NC(=N)N)c1ccc(NC(=O)c2cc3cc(OC(F)(F)F)ccc3[nH]2)cc1 [Compound 33] |
| 1000 to 10000 nM | C/C(=N/NC(=N)N)c1ccc(NC(=O)c2cc3cc(OCc4ccccc4)ccc3[nH]2)cc1 [Compound 34] |
| > 10000 nM | CC(=NNC(=N)N)c1ccc(NC(=O)c2cc3cc([N+](=O)[O-])ccc3[nH]2)cc1 [Compound 35] |
| 100 to 300 nM | CC(=O)c1ccc(NC(=O)Nc2ccc(/C(C)=N/NC(=N)N)cc2)cc1 [Compound 36] |
| 100 to 300 nM | C/C(=N\NC(=N)N)c1ccc(NC(=O)Nc2ccc(Br)cc2)cc1 [Compound 37] |
| 300 to 1000 nM | C/C(=N\NC(=N)N)c1ccc(NC(=O)Nc2ccc(I)cc2)cc1 [Compound 38] |
| < 100 nM | C/C(=N\NC(=N)N)c1ccc(NC(=O)Nc2ccc(NC(=O)Nc3ccc(/C(C)=N/NC(=N)N)cc3)cc2)cc1 [Compound 39] |
| 1000 to 10000 nM | COc1cc(OC)c2cc(C(=O)Nc3ccc(/C(C)=N/NC(=N)N)cc3)[nH]c2c1 [Compound 40] |
| 1000 to 10000 nM | COc1ccc2[nH]nc(C(=O)Nc3ccc(/C(C)=N/NC(=N)N)cc3)c2c1 [Compound 41] |

| EC50 | SMILES |
| --- | --- |
| > 10000 nM | COc1ccc2[nH]nc(C(=O)Nc3ccc(/C(C)=N/NC(=N)N)cc3)c2c1 [Compound 42] |
| 1000 to 10000 nM | COc1ccc2nc(NC(=O)c3ccc(/C(C)=N/NC(=N)N)cc3)sc2c1 [Compound 43] |
| > 10000 nM | COc1cccc2sc(NC(=O)c3ccc(/C(C)=N\NC(=N)N)cc3)nc12 [Compound 44] |
| 1000 to 10000 nM | COc1cc2nc(NC(=O)c3ccc(/C(C)=N\NC(=N)N)cc3)sc2cc1OC [Compound 45] |
| 1000 to 10000 nM | COc1cc2nc(NC(=O)c3ccc(/C(C)=N/NC(=N)N)cc3)sc2cc1OC [Compound 46] |
| 300 to 1000 nM | C/C(=N\NC(=N)N)c1ccc(NC(=O)c2ccc(-c3cnc(N)nc3)cc2)cc1 [Compound 47] |
| > 10000 nM | C/C(=N\NC(=N)N)c1ccc(NC(=O)Nc2ccc(-c3csc(NN)n3)cc2)cc1 [Compound 48] |
| 100 to 300 nM | C/C(=N\NC(=N)N)c1ccc2[nH]c(C(=O)Nc3ccc(N4CCNCC4)cc3)cc2c1 [Compound 49] |
| 1000 to 10000 nM | C/C(=N\NC(=N)N)c1ccc(NC(=O)Nc2ccc(C)cc2)cc1 [Compound 50] |
| 1000 to 10000 nM | C/C(=N\NC(=N)N)c1ccc(NC(=O)Nc2ccc(/C(=N/NC(=N)N)C(C)C)cc2)cc1 [Compound 51] |
| 1000 to 10000 nM | C/C(=N\NC(=N)N)c1ccc(NC(=O)c2cc3ccccc3o2)cc1 [Compound 52] |
| 1000 to 10000 nM | CC/C(=N\NC(=N)N)c1ccc(NC(=O)c2ccco2)cc1 [Compound 53] |
| 1000 to 10000 nM | C/C(=N\NC(=N)N)c1ccc(NC(=O)Nc2ccc(/C(=N/NC(=N)N)c3ccccc3)cc2)cc1 [Compound 54] |
| > 10000 nM | C/C(=N\NC(=N)N)c1ccc(NC(=O)Nc2ccc(/C(=N/NC(=N)N)c3ccccc3)cc2)cc1 [Compound 55] |
| 1000 to 10000 nM | COC(=O)c1ccc(NC(=O)Nc2ccc(/C(C)=N/NC(=N)N)cc2)cc1 [Compound 56] |
| 1000 to 10000 nM | C/C(=N\NC(=N)N)c1ccc(NC(=O)Nc2ccc(Cl)cc2)cc1 [Compound 57] |
| 1000 to 10000 nM | C/C(=N\NC(=N)N)c1ccc(NC(=O)c2cc3ccccc3cn2)cc1 [Compound 58] |
| 1000 to 10000 nM | C/C(=N/NC(=N)N)c1ccc(NC(=O)Nc2ccc(/C(C)=N/NC(=N)N)cc2)c2ccccc12 [Compound 60] |
| > 10000 nM | C/C(=N/NC(=N)N)c1ccc(NC(=O)Nc2ccc(/C(C)=N/NC(=N)N)cc2)cc1C [Compound 61] |
| > 10000 nM | CC(=NNC(=N)N)c1ccc(NC(=O)Nc2ccc(C(C)CNC(=N)N)cc2)cc1 (stereo not shown) [Compound 62] |
| 1000 to 10000 nM | CSC(=N)N/N=C(\C)c1ccc(NC(=O)Nc2ccc(/C(C)=N/NC(=N)SC)cc2)cc1 [Compound 63] |

| SMILES | EC50 |
| --- | --- |
| CNC(=O)Oc1ccc2[nH]c(C(=O)Nc3ccc(/C(C)=N\NC(=N)N)cc3)cc2c1 [Compound 21] | 100 to 300 nM |
